Patent US9073855B2, “BCL-2 selective apoptosis-inducing agents for the treatment of cancer and immune diseases” (AbbVie Inc., priority 2008, dated 2015)

How the values were obtained:
GST-Bcl-2 = GST-Bcl-2 (Homo sapiens, UniProt P10415); experiment: TR-FRET binding assay, GST-Bcl-2 with F-Bak peptide probe; details: for Ki: TR-FRET Binding Affinity
In short: (§1)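 Ki was derived with Wang's equation for competitive binding of two ligands. The read-out was time-resolved fluorescence after a 3 h room-temperature incubation, using a Tb-labelled antibody donor and the F-Bak peptide acceptor (excitation 340/35 nm). Test compounds entered as DMSO serial dilutions starting at 50 μM, which was the 2× concentration.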

GST-Bcl-XL = GST-Bcl-XL (Homo sapiens, UniProt Q07817); experiment: TR-FRET binding assay, GST-Bcl-XL with F-Bak peptide probe; details: TR-FRET Binding Affinity
Chain of GST-Bcl-XL (Q07817 whole entry): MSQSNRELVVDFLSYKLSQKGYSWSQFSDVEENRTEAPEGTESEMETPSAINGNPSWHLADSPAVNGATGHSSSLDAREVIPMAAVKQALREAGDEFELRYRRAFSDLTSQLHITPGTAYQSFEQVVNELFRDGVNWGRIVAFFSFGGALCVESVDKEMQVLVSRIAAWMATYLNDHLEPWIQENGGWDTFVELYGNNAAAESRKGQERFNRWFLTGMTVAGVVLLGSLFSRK
In short: as §1

[1] = ratio of TR-FRET Ki values, Bcl-XL over Bcl-2
[2] = GST-Bcl-XL, F-Bak peptide probe
[3] = TR-FRET, Bcl-XL Ki divided by Bcl-2 Ki

Chain of GST-Bcl-2 (P10415 whole entry): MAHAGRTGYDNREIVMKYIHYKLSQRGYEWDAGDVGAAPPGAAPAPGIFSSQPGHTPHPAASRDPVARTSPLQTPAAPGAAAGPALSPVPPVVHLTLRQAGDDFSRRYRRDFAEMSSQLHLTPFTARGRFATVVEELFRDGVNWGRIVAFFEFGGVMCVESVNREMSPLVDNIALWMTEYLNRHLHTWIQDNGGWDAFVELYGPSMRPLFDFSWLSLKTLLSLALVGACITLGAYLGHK

Row | Compound | Ki (GST-Bcl-2; GST-Bcl-2, F-Bak peptide probe) | Binding selectivity ratio (Bcl-XL Ki/Bcl-2 Ki) (GST-Bcl-2; [1]) | Ki (GST-Bcl-XL; [2]) | Ki (GST-Bcl-2) | Binding selectivity ratio (Bcl-XL Ki/Bcl-2 Ki) (GST-Bcl-2; [3]) | Ki (GST-Bcl-XL)
1 | CC1(C)CCC(CN2CCN(c3ccc(C(=O)NS(=O)(=O)c4cnc(OCC5CCOCC5)c(Cl)c4)c(Oc4cccc5[nH]ncc45)c3)CC2)=C(c2ccc(Cl)cc2)C1 [Example 427, 4-(4-{[2-(4-chlorophenyl)-4,4-dimethylcyclohex-1-en-1-yl]methyl}piperazin-1-yl)-N-{[5-chloro-6-(tetrahydro-2H-pyran-4-ylmethoxy)pyridin-3-yl]sulfonyl}-2-(1H-indazol-4-yloxy)benzamide] | 0.002 nM | 34408.6 | 85.6 nM |  |  | 
2 | CC[C@]1(O)CC[C@H](COc2ncc(S(=O)(=O)NC(=O)c3ccc(N4CCN(CC5=C(c6ccc(Cl)cc6)CC(C)(C)CC5)CC4)cc3Oc3cccc4[nH]ncc34)cc2Cl)CC1 [Example 508, N-({5-chloro-6-[(trans-4-ethyl-4-hydroxycyclohexyl)methoxy]pyridin-3-yl}sulfonyl)-4-(4-{[2-(4-chlorophenyl)-4,4-dimethylcyclohex-1-en-1-yl]methyl}piperazin-1-yl)-2-(1H-indazol-4-yloxy)benzamide] |  |  |  | < 0.01 nM | >4315.2 | 43.2 nM
3 | CC1(C)CCC(CN2CCN(c3ccc(C(=O)NS(=O)(=O)c4ccc(NCC5CCC(F)(F)CC5)c([N+](=O)[O-])c4)c(Oc4cccc5[nH]cnc45)c3)CC2)=C(c2ccc(Cl)cc2)C1 [Example 456, 2-(1H-benzimidazol-4-yloxy)-4-(4-{[2-(4-chlorophenyl)-4,4-dimethylcyclohex-1-en-1-yl]methyl}piperazin-1-yl)-N-[(4-{[(4,4-difluorocyclohexyl)methyl]amino}-3-nitrophenyl)sulfonyl]benzamide] |  |  |  | < 0.01 nM | 54.0 | 0.54 nM
4 | CC1(C)CCC(CN2CCN(c3ccc(C(=O)NS(=O)(=O)c4ccc(N[C@H]5CC[C@H](N6CCOCC6)CC5)c([N+](=O)[O-])c4)c(Oc4cccc5[nH]cnc45)c3)CC2)=C(c2ccc(Cl)cc2)C1 [Example 452, Trans-2-(1H-benzimidazol-4-yloxy)-4-(4-{[2-(4-chlorophenyl)-4,4-dimethylcyclohex-1-en-1-yl]methyl}piperazin-1-yl)-N-({4-[(4-morpholin-4-ylcyclohexyl)amino]-3-nitrophenyl}sulfonyl)benzamide] |  |  |  | < 0.01 nM | 600.4 | 6 nM
5 | CC1(C)CCC(CN2CCN(c3ccc(C(=O)NS(=O)(=O)c4ccc(NCC5CN(CC(F)F)CCO5)c([N+](=O)[O-])c4)c(Oc4cccc5[nH]cnc45)c3)CC2)=C(c2ccc(Cl)cc2)C1 (centres unmarked) [Example 415, 2-(1H-benzimidazol-4-yloxy)-4-(4-{[2-(4-chlorophenyl)-4,4-dimethylcyclohex-1-en-1-yl]methyl}piperazin-1-yl)-N-{[4-({[4-(2,2-difluoroethyl)morpholin-2-yl]methyl}amino)-3-nitrophenyl]sulfonyl}benzamide] | 0.002 nM | 17326.9 | 26.9 nM |  |  | 
6 | O=C(NS(=O)(=O)c1ccc(NCC2CCOCC2)c(S(=O)(=O)C(F)(F)F)c1)c1ccc(N2CCN(Cc3ccccc3-c3ccc(Cl)cc3)CC2)cc1Oc1ccc2ccccc2c1 [Example 37, 4-{4-[(4′-chloro-1,1′-biphenyl-2-yl)methyl]piperazin-1-yl}-2-(2-naphthyloxy)-N-({4-[(tetrahydro-2H-pyran-4-ylmethyl)amino]-3-[(trifluoromethyl)sulfonyl]phenyl}sulfonyl)benzamide] | 0.464 nM |  | 44.4 nM |  |  | 
7 | O=C(NS(=O)(=O)c1ccc(NCC2CCOCC2)c(S(=O)(=O)C(F)(F)F)c1)c1ccc(N2CCN(Cc3cc(OCCN4CCOCC4)ccc3-c3ccc(Cl)cc3)CC2)cc1Oc1ccccc1 [Example 117, 4-(4-{[4′-chloro-4-(2-morpholin-4-ylethoxy)-1,1′-biphenyl-2-yl]methyl}piperazin-1-yl)-2-phenoxy-N-({4-[(tetrahydro-2H-pyran-4-ylmethyl)amino]-3-[(trifluoromethyl)sulfonyl]phenyl}sulfonyl)benzamide] | 2.3 nM |  | > 660 nM |  |  | 
8 | CC1(C)CCC(CN2CCN(c3ccc(C(=O)NS(=O)(=O)c4ccc(NCC5CN(CC#N)CCO5)c([N+](=O)[O-])c4)c(Oc4cccc5[nH]cnc45)c3)CC2)=C(c2ccc(Cl)cc2)C1 (centres unmarked) [Example 431, 2-(1H-benzimidazol-4-yloxy)-4-(4-{[2-(4-chlorophenyl)-4,4-dimethylcyclohex-1-en-1-yl]methyl}piperazin-1-yl)-N-{[4-({[4-(cyanomethyl)morpholin-2-yl]methyl}amino)-3-nitrophenyl]sulfonyl}benzamide] | < 0.01 nM | 677.4 | 6.77 nM |  |  | 
9 | CN(C)CC(=O)N1CCO[C@H](COc2ncc(S(=O)(=O)NC(=O)c3ccc(N4CCN(CC5=C(c6ccc(Cl)cc6)CC(C)(C)CC5)CC4)cc3Oc3cccc4[nH]cnc34)cc2Cl)C1 [Example 423, 2-(1H-benzimidazol-4-yloxy)-N-[(5-chloro-6-{[(2S)-4-(N,N-dimethylglycyl)morpholin-2-yl]methoxy}pyridin-3-yl)sulfonyl]-4-(4-{[2-(4-chlorophenyl)-4,4-dimethylcyclohex-1-en-1-yl]methyl}piperazin-1-yl)benzamide] | < 0.01 nM | 756.6 | 7.57 nM |  |  | 
10 | O=C(NS(=O)(=O)c1ccc(NCCCN2CCOCC2)c(S(=O)(=O)C(F)(F)F)c1)c1ccc(N2CCN(Cc3ccccc3-c3ccc(Cl)cc3)CC2)cc1Oc1cccc2[nH]ccc12 [Example 65, 4-{4-[(4′-chloro-1,1′-biphenyl-2-yl)methyl]piperazin-1-yl}-2-(1H-indol-4-yloxy)-N-({4-[(3-morpholin-4-ylpropyl)amino]-3-[(trifluoromethyl)sulfonyl]phenyl}sulfonyl)benzamide] | 4.56 nM |  | 21.8 nM |  |  | 
11 | COc1ccc(Nc2ccc(S(=O)(=O)NC(=O)c3ccc(N4CCN(CC5=C(c6ccc(Cl)cc6)CC(C)(C)CC5)CC4)cc3Oc3ccc4[nH]ccc4c3)cc2[N+](=O)[O-])cc1O [Example 394, 4-(4-{[2-(4-chlorophenyl)-4,4-dimethylcyclohex-1-en-1-yl]methyl}piperazin-1-yl)-N-({4-[(3-hydroxy-4-methoxyphenyl)amino]-3-nitrophenyl}sulfonyl)-2-(1H-indol-5-yloxy)benzamide] | 2.51 nM | >263262.9 | > 660000 nM |  |  | 
12 | CC1(C)CCC(CN2CCN(c3ccc(C(=O)NS(=O)(=O)c4ccc(OCC5(F)CCOCC5)c([N+](=O)[O-])c4)c(Oc4cccc5[nH]nnc45)c3)CC2)=C(c2ccc(Cl)cc2)C1 [Example 519, 2-(1H-benzotriazol-4-yloxy)-4-(4-{[2-(4-chlorophenyl)-4,4-dimethylcyclohex-1-en-1-yl]methyl}piperazin-1-yl)-N-({4-[(4-fluorotetrahydro-2H-pyran-4-yl)methoxy]-3-nitrophenyl}sulfonyl)benzamide] |  |  |  | 0.012 nM | 25935.4 | 311 nM
13 | CN(C)CCCCNc1ccc(S(=O)(=O)NC(=O)c2ccc(N3CCN(Cc4ccccc4-c4ccc(Cl)cc4)CC3)cc2Oc2ccccc2)cc1[N+](=O)[O-] [Example 156, 4-{4-[(4′-chloro-1,1′-biphenyl-2-yl)methyl]piperazin-1-yl}-N-[(4-{[4-(dimethylamino)butyl]amino}-3-nitrophenyl)sulfonyl]-2-phenoxybenzamide] | 0.116 nM |  | 6.16 nM |  |  | 
